The supplement of paper PMC10307832

What was measured:
Assay in all cases: relative viability (nuclei count vs DMSO), 5 days (fraction); higher = more cells survive
NCI-H1975 = tested on: NCI-H1975
How it was run: (§1)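 Dosing by pin tool came one day after lung cancer cell lines were seeded in 1536-well plates, using either one drug or a fixed anchor-drug dose plus five library-drug doses (not always all listed) in √10 steps. After 5 days, nuclei were counted on 4× images. Relative viability is treated-well nuclei count divided by vehicle-well nuclei count, and values are medians of duplicate plates.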

NCI-H2126 = tested on: NCI-H2126
How it was run: as §1

NCI-H2228 = tested on: NCI-H2228
How it was run: as §1

NCI-H2342 = tested on: NCI-H2342
How it was run: as §1

NCI-H2347 = tested on: NCI-H2347
How it was run: as §1

NCI-H358 = tested on: NCI-H358
How it was run: as §1

NCI-H460 = tested on: NCI-H460
How it was run: as §1

NCI-H647 = tested on: NCI-H647
How it was run: as §1

PC-3 [JPC-3] = tested on: PC-3 [JPC-3]
How it was run: as §1

RERF-LC-KJ = tested on: RERF-LC-KJ
How it was run: as §1

SK-LU-1 = tested on: SK-LU-1
How it was run: as §1

SW 1573 = tested on: SW 1573
How it was run: as §1

NC(=O)Nc1cc(-c2cccc(F)c2)sc1C(=O)N[C@H]1CCCNC1 [AZD7762] + Cc1nc(Nc2ncc(C(=O)Nc3c(C)cccc3Cl)s2)cc(N2CCN(CCO)CC2)n1 [Dasatinib] (partner 0.075 µM)
relative viability (NCI-H1975; first compound 0.1 µM): 0.42 | relative viability (NCI-H1975; first compound 0.3162 µM): 0.305 | relative viability (NCI-H1975; first compound 1 µM): 0.242 | relative viability (NCI-H2126; first compound 0.01 µM): 0.658 | relative viability (NCI-H2126; first compound 0.03162 µM): 0.665 | relative viability (NCI-H2126; first compound 0.1 µM): 0.639 | relative viability (NCI-H2126; first compound 0.3162 µM): 0.648 | relative viability (NCI-H2126; first compound 1 µM): 0.402 | relative viability (NCI-H2228; first compound 0.01 µM): 0.67 | relative viability (NCI-H2228; first compound 0.03162 µM): 0.606 | relative viability (NCI-H2228; first compound 0.1 µM): 0.373 | relative viability (NCI-H2228; first compound 0.3162 µM): 0.204 | relative viability (NCI-H2228; first compound 1 µM): 0.125 | relative viability (NCI-H2342; first compound 0.01 µM): 0.326 | relative viability (NCI-H2342; first compound 0.03162 µM): 0.344 | relative viability (NCI-H2342; first compound 0.1 µM): 0.33 | relative viability (NCI-H2342; first compound 0.3162 µM): 0.309 | relative viability (NCI-H2342; first compound 1 µM): 0.31 | relative viability (NCI-H2347; first compound 0.01 µM): 0.36 | relative viability (NCI-H2347; first compound 0.03162 µM): 0.306 | relative viability (NCI-H2347; first compound 0.1 µM): 0.346 | relative viability (NCI-H2347; first compound 0.3162 µM): 0.35 | relative viability (NCI-H2347; first compound 1 µM): 0.253 | relative viability (NCI-H358; first compound 0.01 µM): 0.151 | relative viability (NCI-H358; first compound 0.03162 µM): 0.182 | relative viability (NCI-H358; first compound 0.1 µM): 0.188 | relative viability (NCI-H358; first compound 0.3162 µM): 0.167 | relative viability (NCI-H358; first compound 1 µM): 0.17 | relative viability (NCI-H460; first compound 0.01 µM): 0.531 | relative viability (NCI-H460; first compound 0.03162 µM): 0.578 | relative viability (NCI-H460; first compound 0.1 µM): 0.443 | relative viability (NCI-H460; first compound 0.3162 µM): 0.304 | relative viability (NCI-H460; first compound 1 µM): 0.0715 | relative viability (NCI-H647; first compound 0.01 µM): 0.214 | relative viability (NCI-H647; first compound 0.03162 µM): 0.184 | relative viability (NCI-H647; first compound 0.1 µM): 0.197 | relative viability (NCI-H647; first compound 0.3162 µM): 0.143 | relative viability (NCI-H647; first compound 1 µM): 0.0925 | relative viability (PC-3 [JPC-3]; first compound 0.01 µM): 1.05 | relative viability (PC-3 [JPC-3]; first compound 0.03162 µM): 0.961 | relative viability (PC-3 [JPC-3]; first compound 0.1 µM): 0.969 | relative viability (PC-3 [JPC-3]; first compound 0.3162 µM): 1.01 | relative viability (PC-3 [JPC-3]; first compound 1 µM): 0.716 | relative viability (RERF-LC-KJ; first compound 0.01 µM): 0.847 | relative viability (RERF-LC-KJ; first compound 0.03162 µM): 0.896 | relative viability (RERF-LC-KJ; first compound 0.1 µM): 0.858 | relative viability (RERF-LC-KJ; first compound 0.3162 µM): 0.782 | relative viability (RERF-LC-KJ; first compound 1 µM): 0.563 | relative viability (SK-LU-1; first compound 0.01 µM): 0.183 | relative viability (SK-LU-1; first compound 0.03162 µM): 0.158 | relative viability (SK-LU-1; first compound 0.1 µM): 0.108 | relative viability (SK-LU-1; first compound 0.3162 µM): 0.126 | relative viability (SK-LU-1; first compound 1 µM): 0.128 | relative viability (SW 1573; first compound 0.01 µM): 0.576 | relative viability (SW 1573; first compound 0.03162 µM): 0.561 | relative viability (SW 1573; first compound 0.1 µM): 0.45 | relative viability (SW 1573; first compound 0.3162 µM): 0.247 | relative viability (SW 1573; first compound 1 µM): 0.121
